Among the data in US20240124520A1, “N-ACYLATED HISTIDINE DIPEPTIDES AS ANTICANCER AGENTS” (THE BOARD OF TRUSTEES OF THE LELAND STANFORD JUNIOR …, priority 2019, published 2024) are cytotoxicity and IC50 values, retold here.

This assay relates to MDA-MB-231 triple-negative human breast cancer cells. The assay can be described thus: Cell Titer Blue in vitro cell viability assay, MDA-MB-231. The settings on record: MDA-MB-231 (DMEM); for IC50: MDA-MB-231, 72 h, 3 days at 37° C. It is filed as cell-based. The procedure: FIG. 1: Dose Response curve for MBC017 with MDA-MB-231 cells. Compound MBC017 was incubated with MDA-MB-231 triple-negative human breast cancer cells at the indicated concentrations for 3 days at 37° C. prior to Cell Titer Blue fluorescence-based cell viability assay. Normalized cell viability data, expressed as a percentage, are averaged from three biological replicates and standard error represented by error bars for each averaged data point (empty squares). The compound concentrations are represented on log scale on the x-axis in μM units. Data were analyzed using free software called DrFit, as described in Nature Scientific Reports, Article number: 14701, (2015). […] The data were not sufficient to calculate an accurate IC50 value.
A commercially available in vitro cell viability reagent (Cell Titer Blue) was employed to determine the anti-cancer effectiveness of several compounds (1-5) against multiple cancer and healthy tissue-derived cell lines. Cell lines are summarized in Table 2, as follows: All cell lines and information on each cell lines origins and characteristics were procured from ATCC (www.atcc.org). Common names and ATCC product IDs are shown in the first (leftmost) column. From the left, the second and third columns describe the organism and tissue from which each cell line was isolated. The fourth and fifth columns indicate the cell type and disease status (e.g. normal versus carcinoma) of each cell line. The sixth column provides a summary of what compounds were tested against each cell line using an in vitro cell viability assay. Peptide name IDs are shown in parenthesis for each compound, numbered 1 through 5.
The Cell Titer Blue reagent (available from Promega, Inc.) is a buffered solution containing resazurin, a compound that is converted to resorufin, a detectable fluorescent product, by metabolically active cells. The fluorescence intensity of resorufin product therefore serves as a proportional measure of the number of viable cells, permitting changes in cell viability within cancer or other cell lines to be monitored in response to the addition of cytotoxic or cytostatic agents. Various human breast tissue-derived cell lines are widely employed to study the effects of potential therapeutics against breast cancer in vitro. Human breast cancer cell lines may be subdivided into groups based upon hormone receptor status, i.e. estrogen, progesterone and human epidermal growth factor positive or negative. A healthy human breast tissue-derived cell line, hTERT-HME1 may be used to determine the effect of therapeutic agents on healthy human breast tissue in vitro. Additionally, a highly metastatic and aggressive murine (mouse) breast cancer cell line, 4T1, has been extensively used to monitor breast cancer metastasis from the mammary fat pads of mice to the lungs in order to systematically survey the anti-metastatic effectiveness of anti-cancer therapeutics in an in vivo animal model. Metastases to the lungs may be conveniently quantified by a well-established clonogenic assay. Other human tissue-derived model cell lines, representative of various cancers, other than breast cancer, may be utilized to assess the potential of anti-cancer compounds in vitro. These include, K-562 (chronic myelogenous leukemia), HEPG2 (hepatocellular carcinoma), OVCAR-3 (ovarian adenocarcinoma), SK—N—SH (neuroblastoma) and A549 (lung carcinoma). Several compounds were assayed in vitro using the Cell Titer Blue viability assay against an array of cancer cell lines of both human and murine origin plus one healthy human breast cell line (Table 1, FIGS. 1-16). A mouse 4T1 metastasis study was performed to determine the anti-metastatic potential of one compound, MBC0179 (FIG. 17).
Dimethyl sulfoxide (DMSO), Cremophor EL, methylene blue, 100× antibiotic/antimycotic solution, collagenase (Type IV), DNAse I and 6-thioguanine were available from Millipore-Sigma. […]

Non-standard residues stand in square brackets, D forms with d. Residues, ends and D or L forms follow the SMILES beside them. *: point of attachment. Palmitoyl = CCCCCCCCCCCCCCCC(=O)*

In the case of `CCCCCCCCCCCCCCCC(=O)N[C@@H](Cc1c[nH]cn1)C(=O)N[C@H](C(=O)O)C(C)C` [Compound 1, N-[N-(1-oxohexadecyl)-L-histidyl]-L-valine] (Palmitoyl-His-Val-OH), where the note is “72 h, 125 μM, relative to vehicle, 3 days of incubation, read-out: reduction in viability”, the cytotoxicity at 125 µM was around 40%.

Regarding `CCCCCCCCCCCCCCCC(=O)N[C@@H](Cc1c[nH]cn1)C(=O)N[C@H](C(=O)O)[C@@H](C)CC` [Compound 2, N-[N-(1-oxohexadecyl)-L-histidyl]-L-isoleucine] (Palmitoyl-His-Ile-OH), the IC50 (usually the midpoint of a concentration-inhibition curve) is 6730 µM. In other words, the millimolar range.

On to `CCCCCCCCCCCCCCCC(=O)N[C@@H](Cc1c[nH]cn1)C(=O)N[C@H](C(=O)OCC)C(C)C` [Compound 3, N-[N-(1-oxohexadecyl)-L-histidyl]-L-valine ethyl ester] (Palmitoyl-His-Val-OEt), for which the IC50 stood at 13.1 µM.

`CCCCCCCCCCCCCCCC(=O)N[C@H](Cc1c[nH]cn1)C(=O)N[C@@H](C(=O)O)C(C)C` [Compound 4, N-[N-(1-oxohexadecyl)-D-histidyl]-D-valine] (Palmitoyl-[dH]-[dV]-OH): the IC50 worked out at 62.1 µM. Compared with the last compound, the IC50 is about 4.7-fold higher.
